Test results as given in patent US20100041089A1, “IMPROVED METHOD FOR DETECTING CHEMICAL […]” (priority 2006, published 2010).

System: yeast genes (expressed mRNA)
Experiment: DNA chip measurement of expressed mRNA of yeast genes after culture with a toxic chemical substance
Type: cell-based, Saccharomyces cerevisiae S288C
Conditions: for level of expressed mRNA in the presence of chemical substance / level in the absence of chemical substance: cultured two hours with the chemical substance; for The level of expressed mRNA in the presence of chemical substance/The level of expressed mRNA in the absence of chemical substance: cultured two hours with substance
In short: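 Fluorescence ratio, treated over untreated, read by chip scanner; ratio of two or more counted significant. Cells: S288C yeast, YPD, 25° C, chemical added at log phase for 2 h at growth-inhibiting, sublethal level. Cy3/Cy5-labeled cDNA from oligo-dT-purified mRNA.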

Structure (SMILES): [Cl][Hg][Cl] [(3), HgCl2]
- level of expressed mRNA in the presence of chemical substance / level in the absence of chemical substance (yeast gene YJL097W): 3.7
- The level of expressed mRNA in the presence of chemical substance/The level of expressed mRNA in the absence of chemical substance (yeast gene YJL151C): 3.2
- The level of expressed mRNA in the presence of chemical substance/The level of expressed mRNA in the absence of chemical substance (yeast gene YJL152W): 1.8
- The level of expressed mRNA in the presence of chemical substance/The level of expressed mRNA in the absence of chemical substance (yeast gene YJL161W): 1.5
- The level of expressed mRNA in the presence of chemical substance/The level of expressed mRNA in the absence of chemical substance (yeast gene YJL171C): 2.8
- The level of expressed mRNA in the presence of chemical substance/The level of expressed mRNA in the absence of chemical substance (yeast gene YJR008W): 1.2
- level of expressed mRNA in the presence of chemical substance / level in the absence of chemical substance (yeast gene YJR030C): 0.9
- The level of expressed mRNA in the presence of chemical substance/The level of expressed mRNA in the absence of chemical substance (yeast gene YJR054W): 0.3
- level of expressed mRNA in the presence of chemical substance / level in the absence of chemical substance (yeast gene YKL051W): 4.7
- The level of expressed mRNA in the presence of chemical substance/The level of expressed mRNA in the absence of chemical substance (yeast gene YKL071W): 5.4
- The level of expressed mRNA in the presence of chemical substance/The level of expressed mRNA in the absence of chemical substance (yeast gene YKL086W): 2.4
- level of expressed mRNA in the presence of chemical substance / level in the absence of chemical substance (yeast gene YKL097C): 0.6
- level of expressed mRNA in the presence of chemical substance / level in the absence of chemical substance (yeast gene YKL100C): 5.0
- The level of expressed mRNA in the presence of chemical substance/The level of expressed mRNA in the absence of chemical substance (yeast gene YKL151C): 1.7
- The level of expressed mRNA in the presence of chemical substance/The level of expressed mRNA in the absence of chemical substance (yeast gene YKL153W): 2.0
- The level of expressed mRNA in the presence of chemical substance/The level of expressed mRNA in the absence of chemical substance (yeast gene YKL195W): 0.4
- level of expressed mRNA in the presence of chemical substance / level in the absence of chemical substance (yeast gene YKR040C): 2.4
- The level of expressed mRNA in the presence of chemical substance/The level of expressed mRNA in the absence of chemical substance (yeast gene YKR091W): 0.9
- The level of expressed mRNA in the presence of chemical substance/The level of expressed mRNA in the absence of chemical substance (yeast gene YLR054C): 0.4
- The level of expressed mRNA in the presence of chemical substance/The level of expressed mRNA in the absence of chemical substance (yeast gene YLR149C): 3.4
- The level of expressed mRNA in the presence of chemical substance/The level of expressed mRNA in the absence of chemical substance (yeast gene YLR152C): 1.1
- The level of expressed mRNA in the presence of chemical substance/The level of expressed mRNA in the absence of chemical substance (yeast gene YLR194C): 1.3
- level of expressed mRNA in the presence of chemical substance / level in the absence of chemical substance (yeast gene YLR226W): 0.3
- The level of expressed mRNA in the presence of chemical substance/The level of expressed mRNA in the absence of chemical substance (yeast gene YLR324W): 0.9
- level of expressed mRNA in the presence of chemical substance / level in the absence of chemical substance (yeast gene YLR338W): 1.4
- The level of expressed mRNA in the presence of chemical substance/The level of expressed mRNA in the absence of chemical substance (yeast gene YLR350W): 3.2
- The level of expressed mRNA in the presence of chemical substance/The level of expressed mRNA in the absence of chemical substance (yeast gene YLR387C): 0.8
- level of expressed mRNA in the presence of chemical substance / level in the absence of chemical substance (yeast gene YLR392C): 0.8
- level of expressed mRNA in the presence of chemical substance / level in the absence of chemical substance (yeast gene YLR415C): 6.7
- level of expressed mRNA in the presence of chemical substance / level in the absence of chemical substance (yeast gene YLR427W): 0.2
- The level of expressed mRNA in the presence of chemical substance/The level of expressed mRNA in the absence of chemical substance (yeast gene YLR460C): 2.0
- level of expressed mRNA in the presence of chemical substance / level in the absence of chemical substance (yeast gene YML013W): 0.4
- level of expressed mRNA in the presence of chemical substance / level in the absence of chemical substance (yeast gene YML029W): 1.3
- level of expressed mRNA in the presence of chemical substance / level in the absence of chemical substance (yeast gene YML041C): 0.6
- level of expressed mRNA in the presence of chemical substance / level in the absence of chemical substance (yeast gene YML079W): 1.1
- The level of expressed mRNA in the presence of chemical substance/The level of expressed mRNA in the absence of chemical substance (yeast gene YML117W): 0.9
- The level of expressed mRNA in the presence of chemical substance/The level of expressed mRNA in the absence of chemical substance (yeast gene YMR009W): 0.5
- The level of expressed mRNA in the presence of chemical substance/The level of expressed mRNA in the absence of chemical substance (yeast gene YMR067C): 1.1
- level of expressed mRNA in the presence of chemical substance / level in the absence of chemical substance (yeast gene YMR068W): 0.8
- level of expressed mRNA in the presence of chemical substance / level in the absence of chemical substance (yeast gene YMR071C): 1.1
- The level of expressed mRNA in the presence of chemical substance/The level of expressed mRNA in the absence of chemical substance (yeast gene YMR090W): 2.3
- The level of expressed mRNA in the presence of chemical substance/The level of expressed mRNA in the absence of chemical substance (yeast gene YMR095C): 1.6
- The level of expressed mRNA in the presence of chemical substance/The level of expressed mRNA in the absence of chemical substance (yeast gene YMR097C): 0.7
- The level of expressed mRNA in the presence of chemical substance/The level of expressed mRNA in the absence of chemical substance (yeast gene YMR102C): 1.1
- The level of expressed mRNA in the presence of chemical substance/The level of expressed mRNA in the absence of chemical substance (yeast gene YMR107W): 1.7
- level of expressed mRNA in the presence of chemical substance / level in the absence of chemical substance (yeast gene YMR160W): 1.2
- The level of expressed mRNA in the presence of chemical substance/The level of expressed mRNA in the absence of chemical substance (yeast gene YMR180C): 1.0
- The level of expressed mRNA in the presence of chemical substance/The level of expressed mRNA in the absence of chemical substance (yeast gene YMR184W): 1.0
- The level of expressed mRNA in the presence of chemical substance/The level of expressed mRNA in the absence of chemical substance (yeast gene YMR191W): 1.9
- The level of expressed mRNA in the presence of chemical substance/The level of expressed mRNA in the absence of chemical substance (yeast gene YMR295C): 1.2
- The level of expressed mRNA in the presence of chemical substance/The level of expressed mRNA in the absence of chemical substance (yeast gene YMR316W): 1.1
- level of expressed mRNA in the presence of chemical substance / level in the absence of chemical substance (yeast gene YNL026W): 1.3
- The level of expressed mRNA in the presence of chemical substance/The level of expressed mRNA in the absence of chemical substance (yeast gene YNL044W): 2.3
